Results taken from US12590091B2, “1H-pyrrolo[3,2-C]pyridine and 1H-pyrrolo[2,3-C]pyridine derivatives as TLR9 inhibitors for the treatment of fibrosis” (BRISTOL-MYERS SQUIBB COMPANY, priority 2020, dated 2026).

Biological target: T1, human TLR9 (Homo sapiens, UniProt Q9NR96)
T1 construct: host or cells: HEK-Blue cells
T1 sequence (Q9NR96 26-1032): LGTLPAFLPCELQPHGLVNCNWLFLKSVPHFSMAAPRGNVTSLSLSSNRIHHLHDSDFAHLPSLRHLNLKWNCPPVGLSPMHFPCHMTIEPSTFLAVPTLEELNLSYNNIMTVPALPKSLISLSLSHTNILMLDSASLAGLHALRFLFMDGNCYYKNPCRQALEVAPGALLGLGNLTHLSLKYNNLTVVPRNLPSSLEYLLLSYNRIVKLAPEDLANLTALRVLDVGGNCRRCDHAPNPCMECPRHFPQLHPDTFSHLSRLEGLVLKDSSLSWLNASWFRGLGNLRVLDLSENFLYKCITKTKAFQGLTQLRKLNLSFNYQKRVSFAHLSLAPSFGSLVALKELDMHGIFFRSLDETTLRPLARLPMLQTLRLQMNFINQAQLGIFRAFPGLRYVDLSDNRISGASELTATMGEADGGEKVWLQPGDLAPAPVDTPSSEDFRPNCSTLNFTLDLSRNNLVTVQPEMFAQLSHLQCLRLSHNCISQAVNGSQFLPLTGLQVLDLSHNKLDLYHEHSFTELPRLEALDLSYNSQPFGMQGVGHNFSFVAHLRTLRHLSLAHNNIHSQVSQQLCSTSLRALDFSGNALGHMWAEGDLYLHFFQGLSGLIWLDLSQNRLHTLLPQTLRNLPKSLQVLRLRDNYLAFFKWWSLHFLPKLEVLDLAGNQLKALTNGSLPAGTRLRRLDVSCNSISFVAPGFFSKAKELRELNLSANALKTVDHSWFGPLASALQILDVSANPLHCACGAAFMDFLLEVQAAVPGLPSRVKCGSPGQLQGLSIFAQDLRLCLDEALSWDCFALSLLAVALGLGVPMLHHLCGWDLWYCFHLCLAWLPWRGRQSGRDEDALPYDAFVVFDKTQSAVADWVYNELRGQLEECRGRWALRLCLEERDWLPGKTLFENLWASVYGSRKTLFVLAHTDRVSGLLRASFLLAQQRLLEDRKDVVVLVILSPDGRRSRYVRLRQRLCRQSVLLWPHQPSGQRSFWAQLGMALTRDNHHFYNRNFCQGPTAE
Experiment: TLR9 inhibition reporter assay (HEK-Blue cells, SEAP reporter)
Assay type: cell-based
Conditions: HEK-Blue cells overexpressing human TLR9, stimulated with ODN2006 5 nM, 22 hour incubation
Protocol: TLR7/8/9 Inhibition Reporter Assays
HEK-Blue™-cells (Invivogen) overexpressing human TLR7, TLR8 or TLR9 receptors were used for screening inhibitors of these receptors using an inducible SEAP (secreted embryonic alkaline phosphatase) reporter gene under the control of the IFN-β minimal promoter fused to five NF-κB and AP-1-binding sites. Briefly, cells are seeded into Greiner 384 well plates (15000 cells per well for TLR7, 20,000 for TLR8 and 25,000 for TLR9) and then treated with test compounds in DMSO to yield a final dose response concentration range of 0.05 nM-50 μM. […] After a 22 hour incubation at 37° C., 5% CO2, SEAP levels are determined with the addition of HEK-Blue™ Detection reagent (Invivogen), a cell culture medium that allows for detection of SEAP, according to manufacturer's specifications. The percent inhibition is determined as the % reduction in the HEK-Blue signal present in wells treated with agonist plus DMSO alone compared to wells treated with a known inhibitor.

| IC50 [nM] | Compound |
| --- | --- |
| 36 | Cc1nc(-c2ccc(N3CCN(C(C)C)CC3)c(F)c2)cc2c1cc(-c1ccc(S(C)(=O)=O)cc1)n2C [Example 12, 6-(3-Fluoro-4-(4-isopropylpiperazin-1-yl)phenyl)-1,4-dimethyl-2-(4-(methylsulfonyl)phenyl)-1H-pyrrolo[3,2-c]pyridine] |
| 579 | COc1ccc(-c2cc3cnc(-c4ccc(N5CCN(C(C)=O)CC5)cc4)cc3n2C)cc1OC [Example 30, 1-(4-(4-(2-(3,4-dimethoxyphenyl)-1-methyl-1H-pyrrolo[3,2-c]pyridin-6-yl)phenyl)piperazin-1-yl) ethan-1-one] |
| 672 | Cc1nc(-c2ccc(N3CCN(C(C)C)CC3)cc2)cc2c1cc(-c1cccc(S(C)(=O)=O)c1)n2C [Example 39, 6-(4-(4-isopropylpiperazin-1-yl)phenyl)-1,4-dimethyl-2-(3-(methylsulfonyl)phenyl)-1H-pyrrolo[3,2-c]pyridine] |
| 98 | Cc1nc(-c2ccc(N3CCN(CC(C)C)CC3)cc2)cc2c1cc(-c1cccc(S(C)(=O)=O)c1)n2C [Example 40, 6-(4-(4-isobutylpiperazin-1-yl)phenyl)-1,4-dimethyl-2-(3-(methylsulfonyl)phenyl)-1H-pyrrolo[3,2-c]pyridine] |
| 346 | Cc1nc(-c2ccc(N3CCN(C(C)C)CC3)cc2)cc2c1cc(-c1ccc(S(=O)(=O)C3CC3)cc1)n2C [Example 42, 2-(4-(Cyclopropylsulfonyl)phenyl)-6-(4-(4-isopropylpiperazin-1-yl)phenyl)-1,4-dimethyl-1H-pyrrolo[3,2-c]pyridine] |
| 213 | Cc1nc(-c2ccc(N3CCN(CC(C)C)CC3)cc2)cc2c1cc(-c1ccc(S(=O)(=O)C3CC3)cc1)n2C [Example 46, 2-(4-(cyclopropylsulfonyl)phenyl)-6-(4-(4-isobutylpiperazin-1-yl)phenyl)-1,4-dimethyl-1H-pyrrolo[3,2-c]pyridine] |
| 6760 | Cc1nc(-c2ccc(N3CCN(C(C)C)CC3)cc2)cc2c1cc(-c1ccc(S(=O)(=O)N(C)C)cc1)n2C [Example 49, 4-(6-(4-(4-isopropylpiperazin-1-yl)phenyl)-1,4-dimethyl-1H-pyrrolo[3,2-c]pyridin-2-yl)-N,N-dimethylbenzenesulfonamide] |
| 2410 | Cc1nc(-c2ccc(N3CCN(C4COC4)CC3)cc2)cc2c1cc(-c1ccc(S(=O)(=O)N(C)C)cc1)n2C [Example 50, 4-(1,4-dimethyl-6-(4-(4-(oxetan-3-yl)piperazin-1-yl)phenyl)-1H-pyrrolo[3,2-c]pyridin-2-yl)-N,N-dimethylbenzenesulfonamide] |
| 44 | COCCN1CCN(c2ccc(-c3cc4c(cc(-c5ccc(S(=O)(=O)N(C)C)cc5)n4C)c(C)n3)cc2)CC1 [Example 51, 4-(6-(4-(4-(2-methoxyethyl)piperazin-1-yl)phenyl)-1,4-dimethyl-1H-pyrrolo[3,2-c]pyridin-2-yl)-N,N-dimethylbenzenesulfonamide] |
| 202 | Cc1nc(-c2ccc(N3CCN(C4CCOC4)CC3)cc2)cc2c1cc(-c1ccc(S(=O)(=O)N(C)C)cc1)n2C (stereo not shown) [Example 52, 4-(1,4-dimethyl-6-(4-(4-(tetrahydrofuran-3-yl)piperazin-1-yl)phenyl)-1H-pyrrolo[3,2-c]pyridin-2-yl)-N,N-dimethylbenzenesulfonamide] |
| 105 | Cc1nc(-c2ccc(N3CCN(C4CC4)CC3)cc2)cc2c1cc(-c1ccc(S(C)(=O)=O)cc1)n2C [Example 62, 6-(4-(4-cyclopropylpiperazin-1-yl)phenyl)-1,4-dimethyl-2-(4-(methylsulfonyl)phenyl)-1H-pyrrolo[3,2-c]pyridine] |
| 146 | Cc1nc(-c2ccc(N3CCN4CCCC4C3)cc2)cc2c1cc(-c1ccc(S(C)(=O)=O)cc1)n2C (stereo not shown) [Example 63, 6-(4-(hexahydropyrrolo[1,2-a]pyrazin-2(1H)-yl)phenyl)-1,4-dimethyl-2-(4-(methylsulfonyl)phenyl)-1H-pyrrolo[3,2-c]pyridine] |
| 6.4 | Cc1nc(-c2ccc(N3CC4CCC(C3)N4C(C)C)cc2)cc2c1cc(-c1ccc(S(C)(=O)=O)cc1)n2C [Example 64, 6-(4-(8-isopropyl-3,8-diazabicyclo[3.2.1]octan-3-yl)phenyl)-1,4-dimethyl-2-(4-(methylsulfonyl)phenyl)-1H-pyrrolo[3,2-c]pyridine] |
| 136 | Cc1nc(-c2ccc(N3CCN4CCCC4C3)c(F)c2)cc2c1cc(-c1ccc(S(C)(=O)=O)cc1)n2C (stereo not shown) [Example 65, 6-(3-fluoro-4-(hexahydropyrrolo[1,2-a]pyrazin-2(1H)-yl)phenyl)-1,4-dimethyl-2-(4-(methylsulfonyl)phenyl)-1H-pyrrolo[3,2-c]pyridine] |
| 136 | COCCN1CCN(c2ccc(-c3cc4c(cc(-c5ccc(S(C)(=O)=O)cc5)n4C)c(C)n3)cc2F)CC1 [Example 66, 6-(3-fluoro-4-(4-(2-methoxyethyl)piperazin-1-yl)phenyl)-1,4-dimethyl-2-(4-(methylsulfonyl)phenyl)-1H-pyrrolo[3,2-c]pyridine] |
| 25 | Cc1nc(-c2cccc(N3CCN(C(C)C)CC3)c2)cc2c1cc(-c1ccc(S(C)(=O)=O)cc1)n2C [Example 67, 6-(3-(4-isopropylpiperazin-1-yl)phenyl)-1,4-dimethyl-2-(4-(methylsulfonyl)phenyl)-1H-pyrrolo[3,2-c]pyridine] |
| 299 | Cc1nc(-c2cccc(N3CCN(C4CC4)CC3)c2)cc2c1cc(-c1ccc(S(C)(=O)=O)cc1)n2C [Example 68, 6-(3-(4-cyclopropylpiperazin-1-yl)phenyl)-1,4-dimethyl-2-(4-(methylsulfonyl)phenyl)-1H-pyrrolo[3,2-c]pyridine] |
| 3 | Cc1nc(-c2ccc(N3CCN(C4CCOCC4)CC3)c(F)c2)cc2c1cc(-c1ccc(S(C)(=O)=O)cc1)n2C [Example 71, 6-(3-fluoro-4-(4-(tetrahydro-2H-pyran-4-yl)piperazin-1-yl)phenyl)-1,4-dimethyl-2-(4-(methylsulfonyl)phenyl)-1H-pyrrolo[3,2-c]pyridine] |
| 411 | Cc1nc(-c2ccc(N3CCN(CC(C)C)CC3)c(F)c2)cc2c1cc(-c1ccc(S(C)(=O)=O)cc1)n2C [Example 72, 6-(3-fluoro-4-(4-isobutylpiperazin-1-yl)phenyl)-1,4-dimethyl-2-(4-(methylsulfonyl)phenyl)-1H-pyrrolo[3,2-c]pyridine] |
| 359 | Cc1nc(-c2ccc(N3CC4CCC(C3)N4CC(C)C)cc2)cc2c1cc(-c1ccc(S(C)(=O)=O)cc1)n2C [Example 73, 6-(4-(8-isobutyl-3,8-diazabicyclo[3.2.1]octan-3-yl)phenyl)-1,4-dimethyl-2-(4-(methylsulfonyl)phenyl)-1H-pyrrolo[3,2-c]pyridine] |
| 670 | Cc1nc(-c2cc(F)c(N3CCN(C4CCOCC4)CC3)cc2F)cc2c1cc(-c1ccc(S(C)(=O)=O)cc1)n2C [Example 81, 6-(2,5-difluoro-4-(4-(tetrahydro-2H-pyran-4-yl)piperazin-1-yl)phenyl)-1,4-dimethyl-2-(4-(methylsulfonyl)phenyl)-1H-pyrrolo[3,2-c]pyridine] |
| 2300 | Cc1nc(-c2ccc(N3CCN(C4CCOCC4)CC3)c(F)c2F)cc2c1cc(-c1ccc(S(C)(=O)=O)cc1)n2C [Example 83, 6-(2,3-difluoro-4-(4-(tetrahydro-2H-pyran-4-yl)piperazin-1-yl)phenyl)-1,4-dimethyl-2-(4-(methylsulfonyl)phenyl)-1H-pyrrolo[3,2-c]pyridine] |
